We go through 18 molecules from patent US9108923B2, “Compounds, compositions, and methods for cancer therapy” (The Broad Institute, Inc., priority 2012, dated 2015).

Like-named read-outs stand apart in the source and are kept apart here. Some results are limits rather than exact numbers.

Assay [1] relates to H1703 (lung) and HeLa (cervix). In words: ROS Assay (CM-H2DCF-DA, automated microscopy). It counts as cell-based, human. The following applies: 90 minutes after compound treatment.
Assay [2] concerns EJ bladder carcinoma line. In words: Glutathione Assay (GSH/GSSG-Glo), total cellular glutathione. The following applies: EJ cells, 3 h treatment.
The next assay deals with HeLa. In words: ATP Assay (CellTiter-Glo), cellular ATP levels as surrogate for cell viability. Format: cell-based, human. How it is done: (§1) ATP Assay. […] At that time, media was removed and replaced with a solution of CellTiter-Glo reagent (Promega) in PBS. After ten minutes, luminescence was read using an EnVision multilabel plate reader (Perkin-Elmer) and signal intensity was calculated relative to in-plate DMSO control wells.
(§2) We next sought to determine the performance of the synthetic analogs relative to PL in cells. […] As a second assay, effects of compound treatments on ATP levels, a surrogate for cell viability, were measured after 48 hours.
(§3) Assays were performed in 384-well plates on two human cancer cell lines, H1703 (lung) and HeLa (cervix).

The next assay concerns H1703. Described as above. It counts as cell-based, human. Here is the method: as §1, §2, §3
Another assay has as its system HeLa cells. Briefly: Immunofluorescence Detection of Glutathionylated Proteins. The following applies: HeLa cells, monoclonal antibody recognizing glutathione.
The test system of assay [3] is H1703 (lung) and HeLa (cervix). Briefly: ATP assay / cellular toxicity, covering both cell lines. Format: cell-based, human. The following applies: two cell lines tested, ATP levels after 48 h.
The test system of the next assay is BJ vs. BJ-ELR. In words: Assessment of Cancer/Normal Selective Toxicity (crystal violet). The following applies: crystal violet staining, 48 h. Format: cell-based, human.
Setting [4] is: Table 2; cellular ATP levels, 48 h; read-out: EC50 HeLa.
Where [5] appears, read: Table 2; cellular ATP levels, 48 h; read-out: EC50 H1703.
Where [6] appears, read: Homo sapiens, HeLa; Table 1; cellular ATP levels, 48 h; read-out: EC50 HeLa.
[7] abbreviates: Homo sapiens, NCI-H1703; Table 1; cellular ATP levels, 48 h; read-out: EC50 H1703.
The mark [8] stands for this setting: Homo sapiens, HeLa; Table 2; cellular ATP levels, 48 h; read-out: EC50 HeLa.
The mark [9] stands for this setting: Homo sapiens, NCI-H1703; Table 2; cellular ATP levels, 48 h; read-out: EC50 H1703.

As a reminder, the EC50 is the concentration at which the effect is half-maximal. On to `COc1cc2c(c(OC)c1OC)CCC(C(=O)N1CCC=CC1=O)=C2` [compound 29, 1-(5,6,7-trimethoxy-3,4-dihydronaphthalene-2-carbonyl)-5,6-dihydropyridin-2(1H)-one], for which, in assay [1], the “elevation of ROS levels (in words)” value is given as “robust enhancement of ROS levels”. Further, the “decrease in total cellular glutathione” value in assay [2] is “ca. 60%”. Also, the values for the EC50 in the assay with HeLa (setting [4]) and in the assay on H1703 (setting [5]) were over 20 µM and 14 µM, respectively. For the same molecule, the “elevation of protein glutathionylation (in words)” value in the assay with HeLa cells is on record as “minimal elevation”. Further, in assay [3], the “viability / cellular toxicity (in words)” value is “diminished cell death relative to PL”.

Regarding `COc1cc(/C=C/C(=O)N2CCCCC2=O)cc(OC)c1OC` [compound 2, 1-[(2E)-3-(3,4,5-trimethoxyphenyl)prop-2-enoyl]piperidin-2-one], in assay [1], the “elevation of ROS levels (in words)” value is “neither elevated ROS levels”. For the same molecule, the EC50 in the assay with HeLa (setting [6]), in the assay with HeLa (setting [4]), in the assay with H1703 (setting [7]) and in the assay with H1703 (setting [5]) was over 20 µM each time.

Take `COC(=O)CSC1CCN(C(=O)/C=C/c2cc(OC)c(OC)c(OC)c2)C(=O)C1` (stereo not drawn) [compound 25]: in assay [1], the “elevation of ROS levels (in words)” value is on record as “substantially less potent than PL”. Also, the EC50 is over 20 µM in the assay on HeLa (read-out: EC50 HeLa; Table 2; cellular ATP levels, 48 h) and 7.9 µM in the assay on H1703 (read-out: EC50 H1703; Table 2; cellular ATP levels, 48 h). In addition, the “viability / cellular toxicity (in words)” value in assay [3] is reported as “substantially less potent than PL at inducing cancer cell death”.

As to `S=C=NCCc1ccccc1` [Phenethylisothiocyanate, reference compound], the “selective toxicity toward transformed BJ-ELR over BJ fibroblasts (in words)” value in the assay on BJ vs. BJ-ELR was “showed selectivity in this assay”.

As to `COc1cc(/C=C/C(=O)N2CCC=C(C#CC3CC3)C2=O)cc(OC)c1OC` [compound 5, (E)-3-(cyclopropylethynyl)-1-(3-(3,4,5-trimethoxyphenyl)prop-2-enoyl)-5,6-dihydropyridin-2(1H)-one], the concentration for a half-maximal effect (EC50) in the assay on HeLa (setting [6]) was found to be 1.3 µM; in the assay with H1703 (setting [7]), 0.7 µM. For the same molecule, the “elevation of protein glutathionylation (in words)” value in the assay with HeLa cells is “large and rapid elevations in protein glutathionylation”.

For the molecule `COc1cc(/C=C/C(=O)N2C(=O)C=CCC2c2ccsc2)cc(OC)c1OC` (stereo not drawn) [Cpd. 7], the EC50 in the assay on HeLa (setting [8]) and in the assay with H1703 (setting [9]) was 2 µM throughout.

In the case of `COc1cc(/C=C/C(=O)N2CCC=C(C#Cc3ccccc3Cl)C2=O)cc(OC)c1OC` [compound 35], the EC50 with HeLa (setting [8]) was 1.5 µM; with H1703 (setting [9]), 0.6 µM.

On to `C/C(=C\C(=O)N1CCC=CC1=O)c1ccccc1` [compound 9], for which the EC50 is over 20 µM in the assay with HeLa (setting [6]) and 14 µM in the assay on H1703 (setting [7]).

`COc1cc(/C=C/C(=O)N2CCC=CC2=O)c(F)c(OC)c1OC` [compound 23]: the figures for the EC50 with HeLa (setting [8]) and with H1703 (setting [9]) were 3 µM and 0.8 µM, respectively.

Turning to `COc1cc(/C=C/C(=O)N2CCC=C(C#CC3CCCC3)C2=O)cc(OC)c1OC` [compound 17], the EC50 was found to be 3 µM in the assay on HeLa (setting [8]) and 1 µM with H1703 (setting [9]).

With `COc1cc(/C=C(\F)C(=O)N2CCC=CC2=O)cc(OC)c1OC` [compound 58], the EC50 in the assay with HeLa (setting [8]) amounted to 11 µM; in the assay on H1703 (setting [9]) it was 8 µM.

As for `O=C(C#Cc1ccccc1)N1CCC=CC1=O` [compound 75], the EC50 in the assay with HeLa (setting [8]) was 4.1 µM; in the assay with H1703 (setting [9]), 0.91 µM.

`CCCCCCCCCCC#CC1=CCCN(C(=O)/C=C/c2cc(OC)c(OC)c(OC)c2)C1=O` [compound 57]: the EC50 worked out at 9 µM in the assay with HeLa (setting [8]) and 4 µM in the assay with H1703 (setting [9]).

For `COc1cc(/C=C/C(=O)N2CCC=C(C#CC3=CCCCC3)C2=O)cc(OC)c1OC` [compound 45], the EC50 in the assay with HeLa (setting [8]) turned out to be 5 µM; with H1703 (setting [9]) it was 3 µM.

As for `O=C1C=CCCN1C(=O)c1cc2ccccc2s1` [compound 28], the values for the EC50 with HeLa (setting [4]) and in the assay on H1703 (setting [5]) were over 20 µM and 18 µM, respectively.

Regarding `COc1cc(/C=C/C(=O)N2CCC=C(C#Cc3ccsc3)C2=O)cc(OC)c1OC` [compound 69], the EC50 in the assay on HeLa (setting [8]) was 2 µM; in the assay with H1703 (setting [9]) it was 1 µM.

With `O=C1C=CCCN1C(=O)/C=C/c1ccccc1Cl` [compound 49], the EC50 with HeLa (setting [4]) amounted to 7.5 µM; in the assay on H1703 (setting [5]) it was 4 µM.

For the molecule `O=C1C=CCCN1C(=O)c1cc2ccccc2oc1=O` [compound 34], the EC50 with HeLa (setting [8]) came out at 15 µM; in the assay on H1703 (setting [9]) it was 5 µM.
